Assay results reported in the NIST ThermoML archive (doi:10.1016/j.jct.2012.11.032).
“And” between values parts separate entries of the source, which are not always exact repeats. Identical values can stand only once. Numbers after ± are expanded uncertainties.

Columns and labels:
[1] = xn = mol fraction of the nth substance listed; settings: 101 kPa, Liquid, x2 = 0; for mass density: Vibrating tube method; for speed of sound: Sing-around technique in a fixed-path interferometer
[2] = 101 kPa, Liquid, Vibrating tube method

SMILES | mass density ([1]; 283 K) | mass density ([1]; 308 K) | speed of sound ([1]; 313 K) | mass density ([1]; 313 K) | mass density ([2]; 283 K) | mass density ([2]; 288 K) | mass density ([2]; 293 K) | mass density ([2]; 303 K) | mass density ([2]; 308 K) | mass density ([2]; 313 K) | mass density ([1]; 288 K) | mass density ([1]; 293 K) | mass density ([1]; 303 K)
O [water] + CCCCCCCCCCCC[n+]1ccn(C)c1.[Cl-] | 999.719 ± 0.1 kg/m3 | 994.091 ± 0.1 kg/m3 | 1529 ± 1.2 m/s | 992.27 ± 0.1 kg/m3 |  |  |  |  |  |  |  |  | 
O [water] |  |  |  |  | 999.754 ± 0.1 kg/m3 and 999.719 ± 0.1 kg/m3 and 999.713 ± 0.1 kg/m3 | 999.166 ± 0.1 kg/m3 | 998.283 ± 0.1 kg/m3 | 995.75 ± 0.1 kg/m3 | 994.099 ± 0.1 kg/m3 and 994.091 ± 0.1 kg/m3 and 994.144 ± 0.1 kg/m3 | 992.27 ± 0.11 kg/m3 and 992.33 ± 0.1 kg/m3 |  |  | 
O [water] + CCCCCCCC[n+]1ccn(C)c1.[Cl-] | 999.754 ± 0.1 kg/m3 | 994.144 ± 0.1 kg/m3 | 1529 ± 1.2 m/s | 992.33 ± 0.1 kg/m3 |  |  |  |  |  |  | 999.166 ± 0.1 kg/m3 | 998.283 ± 0.1 kg/m3 | 995.75 ± 0.1 kg/m3
O [water] + CCCCCCCCCCn1cc[n+](C)c1.[Cl-] | 999.713 ± 0.1 kg/m3 | 994.099 ± 0.1 kg/m3 | 1529 ± 1.2 m/s |  |  |  |  |  |  |  |  |  | 
